Results: ChEMBL document CHEMBL1155656, “Thirteen novel cycloartane-type triterpenes from Combretum quadrangulare” (2000)
≈ marks a conversion by molar mass, not a printed value.

Assay: Cytotoxicity against mouse 26-L5 cells
Type: functional
Conditions: read-out: ED50 (the source's name)

Row | SMILES | EC50 [µg/mL]
1 | C=C(CC[C@@H](C)[C@H]1CC[C@@]2(C)[C@@H]3[C@@H](O)C[C@H]4[C@](C)(C(=O)O)[C@@H](O)C[C@H](O)[C@@]45C[C@@]35CC[C@]12C)C(C)C | 37.3 (≈ 74.2 µM)
2 | C[C@H](C/C=C\C(C)(C)O)[C@H]1CC[C@@]2(C)[C@@H]3CC[C@H]4[C@](C)(C(=O)O)[C@@H](O)C[C@H](O)[C@@]45C[C@@]35CC[C@]12C [QUADRANGULARIC ACID K] | 82.6 (≈ 169 µM)
3 | C[C@H](CC[C@@H](O)C(C)(C)O)[C@H]1CC[C@@]2(C)[C@@H]3CC[C@H]4[C@](C)(C(=O)O)[C@@H](O)C[C@H](O)[C@@]45C[C@@]35CC[C@]12C [QUADRANGULARIC ACID L] | > 100
4 | C=C(C)[C@H](O)CC[C@@H](C(=O)O)[C@H]1CC[C@@]2(C)[C@@H]3CC[C@H]4[C@](C)(C(=O)OC)[C@@H](O)C[C@H](O)[C@@]45C[C@@]35CC[C@]12C | > 100
5 | COC(=O)[C@]1(C)[C@@H](O)C[C@H](O)[C@]23C[C@]24CC[C@]2(C)[C@@H]([C@@H](C/C=C/C(C)(C)OO)C(=O)O)CC[C@@]2(C)[C@@H]4CC[C@@H]13 [QUADRANGULARIC ACID F] | > 100
6 | C=C(C)[C@@H](O)CC[C@@H](CO)[C@H]1CC[C@@]2(C)[C@@H]3CC[C@H]4[C@](C)(C(=O)OC)[C@@H](O)C[C@H](O)[C@@]45C[C@@]35CC[C@]12C [METHYL QUADRANGULARATE] | 29.4 (≈ 56.7 µM)
7 | C[C@H](CC[C@H](O)C(C)(C)O)[C@H]1CC[C@@]2(C)[C@@H]3CC[C@H]4[C@](C)(C(=O)O)[C@@H](O)C[C@H](O)[C@@]45C[C@@]35CC[C@]12C | > 100
8 | COC(C)(C)/C=C/C[C@@H](C)[C@H]1CC[C@@]2(C)[C@@H]3CC[C@H]4[C@](C)(C(=O)O)[C@@H](O)C[C@H](O)[C@@]45C[C@@]35CC[C@]12C [QUADRANGULARIC ACID J] | 86.1 (≈ 171 µM)
9 | C[C@H](CCC(=O)O)[C@H]1CC[C@@]2(C)[C@@H]3CC[C@H]4[C@](C)(C(=O)O)[C@@H](O)C[C@H](O)[C@@]45C[C@@]35CC[C@]12C [NORQUADRANGULARIC ACID A] | > 100
10 | C=C(C)[C@@H](O)CC[C@@H](C(=O)O)[C@H]1CC[C@@]2(C)[C@@H]3CC[C@H]4[C@](C)(C(=O)OC)[C@@H](O)C[C@H](O)[C@@]45C[C@@]35CC[C@]12C [QUADRANGULARIC ACID G] | > 100
11 | C=C(C)C(=O)CC[C@@H](C(=O)O)[C@H]1CC[C@@]2(C)[C@@H]3CC[C@H]4[C@](C)(C(=O)O)[C@@H](O)C[C@H](O)[C@@]45C[C@@]35CC[C@]12C [QUADRANGULARIC ACID H] | > 100
